From PubChem BioAssay (NCI)
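Briefly, cells in 96-well plates were exposed to five compound concentrations for 48 h, and endpoints were estimated by linear interpolation. GI50 marks 50% less growth. TGI: concentration producing complete growth inhibition.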

These compounds were tested on DMS 114 small cell lung (assay: DTP human tumour cell line panel, 48 h).

SMILES	GI50 [µM]	TGI [µM]
COC(=O)c1cc2c(c(C(=O)OC)c1O)C(=O)C=CC2=O	> 9.1	> 78.8

These compounds were tested on TK-10 renal (assay: DTP human tumour cell line panel, 48 h).

SMILES	TGI [µM]	GI50 [µM]
CCc1nc2ccccc2c(=O)n1/N=C(\N=Nc1ccc(Cl)cc1)c1ccccc1Cl	> 100	
CSc1ccc(/C=C2/C[N+](C)(C)C/C(=C/c3ccc(SC)cc3)C2=O)cc1	> 100	
NCC(=O)NC(CCCC(NC(=O)CN)P(=O)(O)O)P(=O)(O)O (centres undefined)	> 100	
COC(=O)CSc1n[nH]c(-c2ccc(O)c([N+](=O)[O-])c2)n1	> 100	
NC1C2(CCCCCC2)NC(=O)C12CCCCCC2 (centres undefined)	> 100	
COC(=O)c1cc2c(c(C(=O)OC)c1O)C(=O)C=CC2=O	> 54.6	> 9.1

The compounds below were run on SK-MEL-5 melanoma (assay: DTP human tumour cell line panel, 48 h).

SMILES	TGI [µM]	GI50 [µM]
COC(=O)CSc1n[nH]c(-c2ccc(O)c([N+](=O)[O-])c2)n1	> 100	
NC1C2(CCCCCC2)NC(=O)C12CCCCCC2 (centres undefined)	> 100	
COC(=O)c1cc2c(c(C(=O)OC)c1O)C(=O)C=CC2=O	> 55.1	> 9.1

Each compound was assayed on HCC-2998 colon (assay: DTP human tumour cell line panel, 48 h).

SMILES	TGI [µM]	GI50 [µM]
CSc1ccc(/C=C2/C[N+](C)(C)C/C(=C/c3ccc(SC)cc3)C2=O)cc1	34	
CCOCNC(=O)N(COCC)COCC	> 100	
COC(=O)CSc1n[nH]c(-c2ccc(O)c([N+](=O)[O-])c2)n1	> 100	
COC(=O)c1cc2c(c(C(=O)OC)c1O)C(=O)C=CC2=O	> 57.4	> 9.1

These compounds were tested on A549 NSCLC (assay: DTP human tumour cell line panel, 48 h).

SMILES	TGI [µM]	GI50 [µM]
CSc1ccc(/C=C2/C[N+](C)(C)C/C(=C/c3ccc(SC)cc3)C2=O)cc1	> 100	
NCC(=O)NC(CCCC(NC(=O)CN)P(=O)(O)O)P(=O)(O)O (centres undefined)	> 100	
CCOCNC(=O)N(COCC)COCC	> 100	
COC(=O)CSc1n[nH]c(-c2ccc(O)c([N+](=O)[O-])c2)n1	> 100	
NC1C2(CCCCCC2)NC(=O)C12CCCCCC2 (centres undefined)	> 100	
COC(=O)c1cc2c(c(C(=O)OC)c1O)C(=O)C=CC2=O	> 58.3	> 9.1

The compounds below were run on SF-539 CNS (assay: DTP human tumour cell line panel, 48 h).

SMILES	TGI [µM]	GI50 [µM]
CCc1nc2ccccc2c(=O)n1/N=C(\N=Nc1ccc(Cl)cc1)c1ccccc1Cl	> 100	
CSc1ccc(/C=C2/C[N+](C)(C)C/C(=C/c3ccc(SC)cc3)C2=O)cc1	34	
CCOCNC(=O)N(COCC)COCC	> 100	
COC(=O)CSc1n[nH]c(-c2ccc(O)c([N+](=O)[O-])c2)n1	> 100	
NC1C2(CCCCCC2)NC(=O)C12CCCCCC2 (centres undefined)	> 100	
COC(=O)c1cc2c(c(C(=O)OC)c1O)C(=O)C=CC2=O	> 56.1	> 9.1

The compounds below were run on MALME-3M melanoma (assay: DTP human tumour cell line panel, 48 h).

SMILES	TGI [µM]	GI50 [µM]
CSc1ccc(/C=C2/C[N+](C)(C)C/C(=C/c3ccc(SC)cc3)C2=O)cc1	27.5	
CCOCNC(=O)N(COCC)COCC	> 100	
COC(=O)CSc1n[nH]c(-c2ccc(O)c([N+](=O)[O-])c2)n1	> 100	
NC1C2(CCCCCC2)NC(=O)C12CCCCCC2 (centres undefined)	> 100	
COC(=O)c1cc2c(c(C(=O)OC)c1O)C(=O)C=CC2=O	> 58.4	> 9.1

Each compound was assayed on SW-620 colon (assay: DTP human tumour cell line panel, 48 h).

SMILES	TGI [µM]	GI50 [µM]
CSc1ccc(/C=C2/C[N+](C)(C)C/C(=C/c3ccc(SC)cc3)C2=O)cc1	28.1	
CCOCNC(=O)N(COCC)COCC	> 100	
COC(=O)CSc1n[nH]c(-c2ccc(O)c([N+](=O)[O-])c2)n1	> 100	
NC1C2(CCCCCC2)NC(=O)C12CCCCCC2 (centres undefined)	> 100	
COC(=O)c1cc2c(c(C(=O)OC)c1O)C(=O)C=CC2=O	> 21.3	> 9.1

Each compound was assayed on KM20L2 colon (assay: DTP human tumour cell line panel, 48 h).

SMILES	TGI [µM]	GI50 [µM]
CCc1nc2ccccc2c(=O)n1/N=C(\N=Nc1ccc(Cl)cc1)c1ccccc1Cl	> 100	
NCC(=O)NC(CCCC(NC(=O)CN)P(=O)(O)O)P(=O)(O)O (centres undefined)	> 100	
CCOCNC(=O)N(COCC)COCC	> 100	
COC(=O)CSc1n[nH]c(-c2ccc(O)c([N+](=O)[O-])c2)n1	> 100	
COC(=O)c1cc2c(c(C(=O)OC)c1O)C(=O)C=CC2=O	> 56.4	> 9.1

The compounds below were run on OVCAR-5 ovarian (assay: DTP human tumour cell line panel, 48 h).

SMILES	TGI [µM]
CSc1ccc(/C=C2/C[N+](C)(C)C/C(=C/c3ccc(SC)cc3)C2=O)cc1	44
NCC(=O)NC(CCCC(NC(=O)CN)P(=O)(O)O)P(=O)(O)O (centres undefined)	> 100
CCOCNC(=O)N(COCC)COCC	> 100
COC(=O)CSc1n[nH]c(-c2ccc(O)c([N+](=O)[O-])c2)n1	> 100
NC1C2(CCCCCC2)NC(=O)C12CCCCCC2 (centres undefined)	> 100
COC(=O)c1cc2c(c(C(=O)OC)c1O)C(=O)C=CC2=O	> 54.6

The compounds below were run on 786-0 renal (assay: DTP human tumour cell line panel, 48 h).

SMILES	TGI [µM]	GI50 [µM]
CCc1nc2ccccc2c(=O)n1/N=C(\N=Nc1ccc(Cl)cc1)c1ccccc1Cl	> 100	
CSc1ccc(/C=C2/C[N+](C)(C)C/C(=C/c3ccc(SC)cc3)C2=O)cc1	26.8	
COC(=O)CSc1n[nH]c(-c2ccc(O)c([N+](=O)[O-])c2)n1	> 100	
NC1C2(CCCCCC2)NC(=O)C12CCCCCC2 (centres undefined)	> 100	
COC(=O)c1cc2c(c(C(=O)OC)c1O)C(=O)C=CC2=O	> 56.1	> 9.1

What follows are compounds tested on HCT-15 colon (assay: DTP human tumour cell line panel, 48 h).

SMILES	TGI [µM]	GI50 [µM]
CCc1nc2ccccc2c(=O)n1/N=C(\N=Nc1ccc(Cl)cc1)c1ccccc1Cl	> 100	
CSc1ccc(/C=C2/C[N+](C)(C)C/C(=C/c3ccc(SC)cc3)C2=O)cc1	> 100	
CCOCNC(=O)N(COCC)COCC	> 100	
COC(=O)CSc1n[nH]c(-c2ccc(O)c([N+](=O)[O-])c2)n1	> 100	
NC1C2(CCCCCC2)NC(=O)C12CCCCCC2 (centres undefined)	> 100	
COC(=O)c1cc2c(c(C(=O)OC)c1O)C(=O)C=CC2=O	> 49.4	> 9.1

What follows are compounds tested on M19-MEL melanoma (assay: DTP human tumour cell line panel, 48 h).

SMILES	TGI [µM]	GI50 [µM]
CCc1nc2ccccc2c(=O)n1/N=C(\N=Nc1ccc(Cl)cc1)c1ccccc1Cl	> 100	
CSc1ccc(/C=C2/C[N+](C)(C)C/C(=C/c3ccc(SC)cc3)C2=O)cc1	19.8	
NCC(=O)NC(CCCC(NC(=O)CN)P(=O)(O)O)P(=O)(O)O (centres undefined)	> 100	
CCOCNC(=O)N(COCC)COCC	> 100	
COC(=O)c1cc2c(c(C(=O)OC)c1O)C(=O)C=CC2=O	> 58.5	> 9.1

These compounds were tested on ACHN renal (assay: DTP human tumour cell line panel, 48 h).

SMILES	TGI [µM]	GI50 [µM]
CCc1nc2ccccc2c(=O)n1/N=C(\N=Nc1ccc(Cl)cc1)c1ccccc1Cl	> 100	
CSc1ccc(/C=C2/C[N+](C)(C)C/C(=C/c3ccc(SC)cc3)C2=O)cc1	> 100	
NCC(=O)NC(CCCC(NC(=O)CN)P(=O)(O)O)P(=O)(O)O (centres undefined)	> 100	
CCOCNC(=O)N(COCC)COCC	> 100	
COC(=O)CSc1n[nH]c(-c2ccc(O)c([N+](=O)[O-])c2)n1	> 100	
NC1C2(CCCCCC2)NC(=O)C12CCCCCC2 (centres undefined)	> 100	
COC(=O)c1cc2c(c(C(=O)OC)c1O)C(=O)C=CC2=O	> 46.3	> 9.1

Each compound was assayed on XF 498 CNS (assay: DTP human tumour cell line panel, 48 h).

SMILES	TGI [µM]	GI50 [µM]
CCc1nc2ccccc2c(=O)n1/N=C(\N=Nc1ccc(Cl)cc1)c1ccccc1Cl	71.6	
CSc1ccc(/C=C2/C[N+](C)(C)C/C(=C/c3ccc(SC)cc3)C2=O)cc1	29.1	
CCOCNC(=O)N(COCC)COCC	> 100	
COC(=O)CSc1n[nH]c(-c2ccc(O)c([N+](=O)[O-])c2)n1	> 100	
NC1C2(CCCCCC2)NC(=O)C12CCCCCC2 (centres undefined)	> 100	
COC(=O)c1cc2c(c(C(=O)OC)c1O)C(=O)C=CC2=O	> 100	37.8

Each compound was assayed on CCRF-CEM leukemia (assay: DTP human tumour cell line panel, 48 h).

SMILES	TGI [µM]
CSc1ccc(/C=C2/C[N+](C)(C)C/C(=C/c3ccc(SC)cc3)C2=O)cc1	31.5
NCC(=O)NC(CCCC(NC(=O)CN)P(=O)(O)O)P(=O)(O)O (centres undefined)	> 100
CCOCNC(=O)N(COCC)COCC	> 100
COC(=O)CSc1n[nH]c(-c2ccc(O)c([N+](=O)[O-])c2)n1	> 100
